In PubChem BioAssay AID1845203 (Molecular Pharmacology Branch, DTP, NCI, 2023):

Test system: G-401 tumor spheroids, viability % test/control
Assay: Anticancer human tumor G-401 cell line growth inhibition;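 further: spheroids exposed to compound for 7 days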;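 on viability, T/C: 100% = DMSO vehicle-treated spheroids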
Conditions: spheroids with HUVEC and MSC; for IC50: curve of first compound; for viability, T/C: stronger effect = lower value
Outline: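 Complex spheroids of malignant cells with endothelial cells and mesenchymal stem cells; agents alone or combined, from near clinical Cmax (or 10 microM if unknown) down in half-log steps, 0.25% DMSO final.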

[1] = second compound 30 pM, first compound 0.0316 µM
[2] = second compound 30 pM, first compound 0.1 µM
[3] = second compound 30 pM, first compound 0.316 µM
[4] = second compound 30 pM, first compound 1 µM
[5] = second compound 30 pM, first compound 3.16 µM
[6] = second compound 30 pM, first compound 10 µM
[7] = second compound 94.9 pM, first compound 0.0316 µM
[8] = second compound 94.9 pM, first compound 0.1 µM
[9] = second compound 94.9 pM, first compound 0.316 µM
[10] = second compound 94.9 pM, first compound 1 µM
[11] = second compound 94.9 pM, first compound 3.16 µM
[12] = second compound 94.9 pM, first compound 10 µM
[13] = second compound 0.0003 µM, first compound 0.0316 µM
[14] = second compound 0.0003 µM, first compound 0.1 µM
[15] = second compound 0.0003 µM, first compound 0.316 µM
[16] = second compound 0.0003 µM, first compound 1 µM
[17] = second compound 0.0003 µM, first compound 3.16 µM
[18] = second compound 0.0003 µM, first compound 10 µM
[19] = second compound 0.000949 µM, first compound 0.0316 µM
[20] = second compound 0.000949 µM, first compound 0.1 µM
[21] = second compound 0.000949 µM, first compound 0.316 µM
[22] = second compound 0.000949 µM, first compound 1 µM
[23] = second compound 0.000949 µM, first compound 3.16 µM
[24] = second compound 0.000949 µM, first compound 10 µM
[25] = second compound 0.003 µM, first compound 0.0316 µM
[26] = second compound 0.003 µM, first compound 0.1 µM
[27] = second compound 0.003 µM, first compound 0.316 µM
[28] = second compound 0.003 µM, first compound 1 µM
[29] = second compound 0.003 µM, first compound 3.16 µM
[30] = second compound 0.003 µM, first compound 10 µM

Row | Structure (SMILES) | IC50 (second compound 30 pM) | IC50 (second compound 94.9 pM) | IC50 (second compound 0.0003 µM) | IC50 (second compound 0.000949 µM) | IC50 (second compound 0.003 µM) | viability, T/C [1] | viability, T/C [2] | viability, T/C [3] | viability, T/C [4] | viability, T/C [5] | viability, T/C [6] | viability, T/C [7] | viability, T/C [8] | viability, T/C [9] | viability, T/C [10] | viability, T/C [11] | viability, T/C [12] | viability, T/C [13] | viability, T/C [14] | viability, T/C [15] | further results
1 | CC(C)n1c(=O)n(C)c2cnc3cc(F)c(-c4ccc(OCCCN5CCCCC5)nc4)cc3c21 + COc1cc2c(cc1O)CCNC21CSC2c3c(OC(C)=O)c(C)c4c(c3C(COC1=O)N1C(O)C3Cc5cc(C)c(OC)c(O)c5C(C21)N3C)OCO4 | < 31.6 nM | < 31.6 nM | < 31.6 nM | < 31.6 nM | < 31.6 nM | 43.6% | 35.7% | 35% | 46.2% | 36.9% | 19% | 19.1% | 17.3% | 18.1% | 21.6% | 23.9% | 23% | 15.6% | 12.8% | 16.4% | viability, T/C [16]: 19.7%; viability, T/C [17]: 18.4%; viability, T/C [18]: 17.9%; viability, T/C [19]: 7.44%; viability, T/C [20]: 7.47%; viability, T/C [21]: 7.71%; viability, T/C [22]: 11.5%; viability, T/C [23]: 12.2%; viability, T/C [24]: 10.6%; viability, T/C [25]: 0.13%; viability, T/C [26]: 0.16%; viability, T/C [27]: 0.15%; viability, T/C [28]: 0.36%; viability, T/C [29]: 0.4%; viability, T/C [30]: 0.44%
2 | COc1ccc([C@@H](O)c2cc(-c3ncnc4cc(N5CCOCC5)ccc34)c(F)cc2Cl)nn1 + COc1cc2c(cc1O)CCNC21CSC2c3c(OC(C)=O)c(C)c4c(c3C(COC1=O)N1C(O)C3Cc5cc(C)c(OC)c(O)c5C(C21)N3C)OCO4 | 1000 nM | 493 nM | < 31.6 nM | < 31.6 nM | < 31.6 nM | 93.1% | 99.2% | 87.4% | 50% | 16.5% | 9.53% | 83.8% | 83.1% | 63.6% | 27.7% | 9.96% | 5.51% | 40% | 29.8% | 18.6% | viability, T/C [16]: 8.98%; viability, T/C [17]: 3.1%; viability, T/C [18]: 0.75%; viability, T/C [19]: 5.15%; viability, T/C [20]: 5.57%; viability, T/C [21]: 2.21%; viability, T/C [22]: 0.51%; viability, T/C [23]: 0.05%; viability, T/C [24]: 0.16%; viability, T/C [25]: 0.22%; viability, T/C [26]: 0.25%; viability, T/C [27]: 0.21%; viability, T/C [28]: 0.21%; viability, T/C [29]: 0.16%; viability, T/C [30]: 0.25%
